# Values joined by “and” are separate entries in the source; they are usually repeats but may differ in a detail not shown here. Equal entries are not always repeated. “Also recorded” adds a separate entry of the source. Where two headings read alike, the source gives them in different places.
# Tests used:
# mice, rats, and humans = conditions: cited from earlier work
# [1] = cited from earlier work
# [2] = test system: several mammalian cell lines; assay: MTT cytotoxicity, cell lines overall and therapeutic index; format: cell-based; conditions: read-out: IC50 in vitro
# Procedure: (§1) Initial in vitro safety testing of SK-03-92 was performed with an MTT [3-(4,5-dimethylthiazol-2-yl)-2,5-diphenyltetrazolium bromide] assay (9, American Type Culture Collection) for several tissue culture cell lines (murine monocytic J774A.1, human monocytic U937, human kidney epithelial 293, and human bladder epithelial T24) using mitomycin C (Sigma, St. Louis, MO, USA) and DMSO alone as positive and negative controls, respectively. Assays were done a total of three times per tissue culture cell line.
# [3] = test system: human bladder epithelial T24; assay: MTT cytotoxicity assay, T24; format: cell-based; conditions: T-24, T24 cells
# Procedure: as §1
# murine monocytic J774A.1 = assay: MTT cytotoxicity assay, J774A.1; format: cell-based; conditions: Mus musculus, J774.A1; J774A.1 cells
# Procedure: as §1
# Single dose PK assay, ip = format: in vivo, BALB/c mice; conditions: mice
# Procedure: An initial single dose PK experiment was performed using 100 μg/g of formulated SK-03-92 administered ip to twenty-one female, 5–6 week old BALB/c mice (7 per cohort for 3 cohorts, NCI) under parameters established previously. Three animals were used as a control group and received blank vehicle, whereas three mice per time point received 100 μg/g SK-03-92 ip and were sacrificed with blood collected at the 15, 30, 45, 60, 75, and 90 min time points by warming the tails of the mice in warm water, lancing the lateral saphenous tail vein, and collecting the blood (up to 150 μL) into microvette tubes (Sarstedt) containing EDTA or terminal bleed into vacucontainers containing EDTA as an anti-coagulant. Plasma was separated from packed blood cells by centrifugation (600× g) and stored at −70 °C until needed for HPLC analysis. Samples were analyzed with a Shimadzu Prominence HPLC system (Kyoto, Japan) with a Halo C18 column (MAC-MOD Analytical Inc., Chadds Ford, PA, USA). A mobile phase of 62% acetonitrile/38% water, isocratic program of 62% acetonitrile for 20 min, and flow rate of 0.75 mL/min with an injection volume of 10 μL and a retention time of 5.4 min were used. The standard curve for SK-03-92 was linear from 0.0098 to 2.5 μg/mL in plasma. Each chromatogram was collected and integrated to estimate the peak area of analyte by EZ Chrom® software (version.1.0, Agilent Technologies Inc., Santa Clara, CA, USA). The ratio of peak area of SK-03-92 was calculated to estimate the drug concentration(s) using a pre-built calibration curve. Major pharmacokinetic parameters were calculated using the noncompartmental analysis module of WinNonlin® (version 5.1, Pharsight Corp., Princeton, NJ, USA) under sparsely sampling mode.
# [4] = Five-day multi-dose oral PK study; format: in vivo; conditions: female, BALB/c, mouse, plasma, mice, five-day oral 100 μg/g each day
# Procedure: (§2) First, a five-day PK study with SK-03-92 orally administered to female 5-6 week old BALB/c mice was conducted. Three mice received 300 μL of blank vehicle by oral administration. Doses of 100 μg/g SK-03-92 were given orally each day in the vehicle. Blood was collected from three mice at time points 15, 30, 45, 60, 75, and 90 min after administration. Body weight was monitored every day before SK-03-92 administration. Plasma was prepared and stored at −70 °C until analyzed by HPLC. In an extension of this PK study to two-weeks following oral administration of SK-03-92, six mice were dosed in the test (SK-03-92) arm and six vehicle control mice in the other arm. Lastly, a multi-dosing PK analysis was done using two 51-μg/g doses of SK-03-92 per day (given four hours apart) over the course of three days in five mice.
# [5] = Multi-dosing PK, two doses per day for three days; format: in vivo; conditions: mice
# Procedure: as §2
# [6] = test system: human kidney epithelial 293; assay: MTT cytotoxicity assay, 293; format: cell-based; conditions: cell line printed as 292
# Procedure: as §1
# [7] = Relative bioavailability / single dose PK, oral; format: in vivo, BALB/c mice; conditions: mice
# [8] = Two-week multi-dose oral PK study; format: in vivo
# Procedure: as §2
# plasma proteins = assay: Plasma protein binding assay; format: in vitro ADME, mice; conditions: mouse plasma; read-out: bound to plasma proteins (converted)
# Procedure: Plasma collected from EDTA treated blood from six SK-03-92 dosed mice was added to methyl tert-butyl ether (MTBE) to precipitate the proteins. The precipitated proteins were separated from the remainder of the plasma by centrifugation (14,000× g for 20 min) through a Microcon 10K filter (Millipore) and dried under a stream of nitrogen gas. The dried product was suspended in 62% acetonitrile/38% ddH2O and the AUC was quantified and correlated with the initial concentration of SK-03-92 present in the plasma.
# [9] = test system: S. aureus (including MRSA and VISA strains); set-up: method as in PMID 21739106; conditions: cited from earlier work
# human monocytic U937 = assay: MTT cytotoxicity assay, U937; format: cell-based; conditions: U-937, U937 cells
# Procedure: as §1
# Swiss Webster mice = assay: Initial safety testing in mice, escalating ip dosing (OECD); format: in vivo
# Procedure: Three female 5–9 week old Swiss Webster mice (Harlan) per drug concentration were injected intraperitoneally (ip) with increasing concentrations of SK-03-92: 5, 50, 300, and 2000 mg/kg according to OECD [10]. The lowest concentration of drug was used first. Overt toxicity (e.g., altered gait, ungroomed, significant weight loss) was monitored.
# [10] = Solubility in vehicles by HPLC; format: physicochemical; conditions: for solubility: HPLC
# Procedure: An HPLC method was developed on a Halo C18 4.6 × […], 2.7 μm column (MAC-MOD Analytical Inc., Chadds Ford, PA, USA) for the detection and quantitation of SK-03-92. The method was developed using the information obtained from a scouting gradient of 5%–100% acetonitrile over 35 min. A UV spectrum of SK-03-92 was obtained from the scouting gradient and the observed maximum for SK-03-92 was 335 nm, with a local maximum of 224 nm also observed. The 335 nm maximum wavelength was used for the quantitation of SK-03-92, and the 224 nm local maximum wavelength was used to monitor for possible formation of degradation products not visible at the 335 nm wavelength. Flow rate was 0.750 mL/min and injection volume was 10 μL. The mobile phase was 62% acetonitrile (Fisher, Hanover Park, IL, USA):38% water (Milli-Q UV plus) and the isocratic program was 62% acetonitrile:38% water for 20 min. Acquisition time was 10 min and room temperature retention time was 5.4 min. Standards of SK-03-92 were prepared in acetonitrile at concentrations of 0.05–0.005 mg/mL.
smiles,measurement,setting,value
Oc1ccc(/C=C/c2cc(O)cc(O)c2)cc1 [resveratrol],toxicity at high doses,"mice, rats, and humans; in vivo",non-toxic
same,half-lives in animal plasma,[1]; in vivo,15 to 60 min
"COc1cc(O)cc(/C=C/c2cc3ccccc3s2)c1 [SK-03-92, (E)-3-(2-(benzo[b]thiophen-2-yl)vinyl)-5-methoxyphenol]",IC50,[2],125 µg/mL
same,IC50,[3],125 µg/mL
same,IC50,murine monocytic J774A.1,125 µg/mL
same,concentration at 30 min,"Single dose PK assay, ip; female, BALB/c, mouse, plasma, 100 μg/g, 30 min after ip injection",1640 ng/mL
same,concentration at 90 min,"Single dose PK assay, ip; female, BALB/c, mouse, plasma, 100 μg/g, within 90 min of ip injection",149 ng/mL
same,half-life,"Single dose PK assay, ip; female, BALB/c, mouse, plasma, intraperitoneal, oral, 100 μg/g, single dose 100 μg/g, route not given, read-out: drug half-life",20 to 30 min
same,half-life,"Single dose PK assay, ip; female, BALB/c, mouse, plasma, ip, 100 μg/g, ip, single dose 100 μg/g, read-out: Half-Life",22 min
same,Tmax,"Single dose PK assay, ip; female, BALB/c, mouse, plasma, ip, single dose 100 μg/g",30 min
same,AUC(0-inf),"Single dose PK assay, ip; female, BALB/c, mouse, plasma, ip, single dose 100 μg/g, read-out: AUCINF_obs (converted)",1170 ng·h/mL
same,Cmax,"Single dose PK assay, ip; female, BALB/c, mouse, ip, single dose 100 μg/g, plasma",1640 ± 590 ng/mL
same,time to breakdown into metabolic byproducts,"Single dose PK assay, ip; after ip or oral delivery",≤ 15 min
same,Cl_F_obs,"Single dose PK assay, ip; ip, single dose 100 μg/g",1.46 mL/min/g and 1.46 ± 0.26 mL/min/g
same,Vz_F_obs,"Single dose PK assay, ip; ip, single dose 100 μg/g",47.71 mL/g and 47.71 ± 33.25 mL/g
same,half-life,"Single dose PK assay, ip; ip, single dose 100 μg/g",22.46 ± 17.81 min
same,overt toxicity,"Single dose PK assay, ip; single dose 100 μg/g ip",no overt toxicity
same,time at which peak plasma concentration was achieved,"Single dose PK assay, ip; single dose 100 μg/g, route not given",20 to 30 min
same,concentration at 15 min,[4]; after 15 min,86 ng/mL
same,concentration at 75 min,[4]; after 75 min,27 ng/mL
same,gross adverse effects,[5]; multi-dose analysis,no gross adverse effects
same,maximum plasma concentration,[5]; two 51-μg/g doses per day four hours apart for three days,2.12 µg/mL
same,IC50,[6],125 µg/mL
same,half-life,"[7]; female, BALB/c, mouse, plasma, po, 100 μg/g, oral, single dose 100 μg/g, read-out: Half-Life",30 min
same,Tmax,"[7]; female, BALB/c, mouse, plasma, po, 100 μg/g, oral, single dose 100 μg/g, read-out: Tmax (converted)",22 min
same,concentration at 15 min,"[7]; female, BALB/c, mouse, plasma, 100 μg/g oral, after 15 min, read-out: level detected in mouse plasma",740 ng/g
same,concentration at 30 min,"[7]; female, BALB/c, mouse, plasma, 100 μg/g oral, by 30 min, read-out: level detected in mouse plasma",126 ng/g
same,AUC(0-inf),"[7]; female, BALB/c, mouse, plasma, oral, single dose 100 μg/g, read-out: AUCINF_obs (converted)",85.7 ng·h/mL
same,Cmax,"[7]; female, BALB/c, mouse, po, 100 μg/g, orally administered, plasma",370 ng/mL
same,toxicity signs,[7]; 100 μg/g oral,no toxicity signs were observed
same,plasma concentrations,[7]; 75 min after oral gavage,negligible levels
same,oral Cmax relative to Cmax of ip-administered drug,[7]; oral vs ip,approximately 25%
same,Cl_F_obs,"[7]; oral, single dose 100 μg/g",21.00 ± 6.71 mL/min/g
same,Tmax,"[7]; oral, single dose 100 μg/g",21.43 ± 11.80 min
same,Vz_F_obs,"[7]; oral, single dose 100 μg/g",810.67 ± 173.87 mL/g
same,half-life,"[7]; oral, single dose 100 μg/g",30.40 ± 17.81 min
same,concentration at 15 min,"[8]; BALB/c, mouse, plasma, 100 μg/g, mice, two-week oral administration, after 15 min",144 ng/mL
same,concentration at 75 min,"[8]; BALB/c, mouse, plasma, 100 μg/g, mice, two-week oral administration, after 75 min",10 ng/mL
same,weight loss of treated mice,"[8]; multi-dose oral, after two-days",about 1.5%
same,weight increase of treated mice,"[8]; multi-dose oral, day 9",5.16%
same,weight increase of treated mice,"[8]; multi-dose oral, day 12",9.75%
same,fraction unbound,plasma proteins,0.156
same,MIC50,[9],1 µg/mL
same,MIC90,[9],2 µg/mL
same,IC50,human monocytic U937,125 µg/mL
same,adverse effects / overt toxicity after single dose,"Swiss Webster mice; 2000 mg/kg IP single dose, two-week time frame, 2000 mg/kg",non-toxic; also recorded: did not exhibit gross toxicity
same,overt toxicity after repeat dose,Swiss Webster mice; repeat dose of 2000 mg/kg a week after initial 2000 mg/kg,no overt toxicity was observed
same,solubility with Solutol HS 15/PBS solution,[10]; Solutol HS 15/PBS solution,less than 10%
same,solubility,"[10]; aqueous buffer, PBS, read-out: Solubility in PBS",< 0.1 µg/mL
same,solubility,"[10]; aqueous with cosolvent or surfactant or cyclodextrin, 20% Solutol HS 15/80% PBS, read-out: Solubility in 20% Solutol HS 15/80% PBS",4600 µg/mL
same,solubility,"[10]; organic solvent or mixture, PEG 400, read-out: Solubility in PEG 400",9200 µg/mL
COc1cc(/C=C/c2ccc(O)cc2)cc(OC)c1 [pterostilbene],toxicity at high doses,"mice, rats, and humans; mice, rats, and humans",non-toxic
same,half-lives in animal plasma,[1]; animal plasma,120 min
same,plasma concentrations,[1]; animals,< 8 µg/mL

# Reference: publication PMC4748848, “Pharmacokinetic/Toxicity Properties of the New Anti-Staphylococcal Lead Compound SK-03-92” (Antibiotics, 2015)
